Columns and labels:
GLUT-2 = test: Gene expression in islets from diabetic KKAy-mice, real time RT-PCR (Example 2): GLUT-2; type: in vivo; settings: islets of KKAy-mice after nine weeks treatment, normalized to 18S rRNA
Protocol: A the end of the nine week period of the in vivo study in example 1 RNA was purified from Islets, muscle, liver and fat from the three experimental groups, using standard techniques as described in Kiergen, RNA easy.
Gene expression of PDX-1, IRS1, Beta2, 11beta-HSD-1, Akt1, C/EBP-alpha, CPT1, GLUT2, IGF1, IR and Ins1 was measured with Real time RT-PCR using Taq Man Assays normalized to 18S rRNA, using the standard protocol (ABI, USA). All reagents were obtained from (ABI, USA). All probes are standard probes obtainable from ABI, USA, under the specific probe code number, given in respect of each gene.

GLUT2 = test: Affymetrix gene chip analysis of KKAy islets: GLUT2; type: in vivo, mice; settings: ISV vs. KKAy control islets, 9 weeks
Protocol: (§1) cRNA preparation and in vitro transcription: In total 6 Affymetrix arrays MOE430 2.0 probe array cartridge were used i.e. for analysis of 3 replicas for the KKAy control group and the ISV group, respectively. Each of the 6 samples consisted of pooled RNA from 3-4 KKAy mice. Preparation of target for hybridization was prepared from 340 ng of total RNA using MessageAmp™ II aRNA Amplification Kits (Ambion), according to the manufacturers instructions. Arrays were hybridised and scanned as described elsewhere (Kruhoffer et al., 2005).

C/EBPalpha = test: Relative real time RT-PCR in islets of KKAy mice (Example 3): C/EBPalpha; type: in vivo; settings: 9 weeks
Protocol: (§2) Islets were isolated by the collagenase digestion technique. In brief, the animals were anesthetized with pentobarbital (50 mg/kg intraperitoneally) and midline laparotomy was performed. The pancreas was retrogradely filled with 3 mL ice-cold Hanks balanced salt solution (([HBSS] Sigma Chemical, St Louis, Mo.) supplemented with 0.3 mg/ml collagenase Boehringer Mannheim GmbH, Germany). The pancreas was subsequently removed and incubated for 19 minutes at 37° C. After rinsing in HBSS, the islets were handpicked under a stereomicroscope and immediately transferred to a tubes containing 1 ml Trizol (Gibco/Invitrogene, Calsbad, Calif., USA). The islets isolated from the NMRI mice were incubated overnight at 37° C. and 95% normal atmosphere/5% CO2 in 10 ml RPMI 1640 containing 11.1 mmol/L glucose supplemented with penicillin G and 100 μg/mL streptomycin (all Gibco/Invitrogene, Calsbad, Calif., USA).
(§3) For each group, islets from 3-4 mice (180-200 islets) were pooled in 1 ml Trizol reagent (Gibco/lnvitrogene, Calsbad, Calif., USA) before RNA purification. Total RNA was extracted according to the manufactures' instructions. RNA was quantified by measuring absorbance at 260 and 280 nm. The quality of the RNA was checked by the Agilent 2100 bioanalyzer (Agilent, Santa Clara, USA). […]

Nkx6-1 = test: Affymetrix gene chip analysis of KKAy islets: Nkx6-1; type: in vivo, mice; settings: ISV vs. KKAy control islets, 9 weeks
Protocol: as §1

Pdx1/Ipf1 = test: Relative real time RT-PCR in islets of KKAy mice (Example 3): Pdx1/Ipf1; type: in vivo; settings: 9 weeks
Protocol: as §2, §3

SMILES: C[C@@]12CC[C@@H]3[C@@](CC[C@H]4[C@@]3(C)CCC[C@@]4(C)C(=O)O)(CC1=O)C2 (single isomer, unassigned; ent-16) [ISV, ent-16-ketobeyeran-19-oic acid]
- increased expression of GLUT-2 compared to standard diet (GLUT-2): 60%
- array: change of GLUT2 expression (GLUT2): upregulation
- reduction of C/EBP-alpha mRNA expression (C/EBPalpha; RT-PCR): 2 fold
- decreased expression of C/EBPalpha, ISV group vs. control group (C/EBPalpha; normalized to 18S rRNA): 49%
- array: increased expression in Nkx6-1 (Nkx6-1): 2.64 fold
- up regulation of Pdx1 (Pdx1/Ipf1; RT-PCR): ~2 fold
- increased expression of Pdx1/Ipf1, ISV group vs. control group (Pdx1/Ipf1; normalized to 18S rRNA): 96%

Reference: US20100093861A1, “TREATMENT OF INSULIN RESISTANCE OR DISEASES ASSOCIATED WITH INSULIN RESISTANCE” (Stevia ApS, priority 2006, published 2010)
